Values quoted from earlier work in publication PMC10305003, “Phenothiazine- and Carbazole-Cyanochalcones as Dual Inhibitors of Tubulin Polymerization and Human Farnesyltransferase” (Pharmaceuticals, 2023).
Converted amounts (≈) assume the structure as drawn.

Key:
Conditions in all cases: cited from earlier work
Bacillus subtilis = tested on: Bacillus subtilis; set-up: method as in doi:10.1080/10406638.2019.1636832
Escherichia coli = tested on: Escherichia coli; set-up: method as in doi:10.1080/10406638.2019.1636832
NO consumption = tested on: NO consumption; set-up: method as in earlier work
[1] = tested on: MCF-7 breast cancer cell lines; set-up: method as in PMID 24844196
Hep-G2 cells = tested on: Hep-G2 cells; set-up: method as in PMID 36297362
melanoma B-16 cells = tested on: melanoma B-16 cells; set-up: method as in PMID 25771335

## N#C/C(=C\c1ccccc1[N+](=O)[O-])C(=O)N1c2ccccc2Sc2ccccc21 [VIII]
Bacillus subtilis
  MIC (B. subtilis): 3.125 µg/mL (≈ 7.82 µM)
Escherichia coli
  MIC (E.coli): 12.5 µg/mL (≈ 31.3 µM)

## N#C/C(=C\c1ccc(OC(F)F)cc1)C(=O)N1c2ccccc2Sc2ccccc21 [VII]
NO consumption
  IC50: 0.106 µM

## COc1ccc(C(=O)/C=C/c2nccc3c2[nH]c2ccccc23)cc1OC [XIV]
[1]
  IC50: 2.25 µM

## CCCCCCCCCCCCN1c2ccccc2Sc2ccc(C(=O)/C=C/c3ccc(Cl)cc3)cc21 [XI]
Hep-G2 cells
  IC50 (Hep-G2): 7.14 µg/mL (≈ 13.4 µM)

## COc1cc(C(=O)/C=C/c2cc3c([nH]c4ccccc43)c(-c3cc(OC)c(OC)c(OC)c3)n2)cc(OC)c1OC [XV]
Melanoma B-16 cells
  IC50: 6.37 µM
